Reference: patent publication US20030186434A1, “Method of forming vertebrate pancreas in vitro” (priority 2002, published 2003)

System: blastopore upper lip of early gastrula of a Xenopus
Test: Tissue differentiation of blastopore upper lip treated with retinoic acid for three hours, light microscopy
Conditions: treated 3 hours, cultured 10 days

CC1=C(/C=C/C(C)=C/C=C/C(C)=C/C(=O)O)C(C)(C)CCC1 [Retinoic acid, retinoic acid]
Atypical epidermis differentiated, specimens (%) (10^−3 M, 12 specimens): 0 (0) | Cartilage differentiated, specimens (%) (10^−3 M, 12 specimens): 0 (0) | Cement gland differentiated, specimens (%) (10^−3 M, 12 specimens): 0 (0) | Coelomic epithelium differentiated, specimens (%) (10^−3 M, 12 specimens): 6 (50) | Ear vesicle differentiated, specimens (%) (10^−3 M, 12 specimens): 0 (0) | Epidermis differentiated, specimens (%) (10^−3 M, 12 specimens): 10 (83) | Eye or its fragments differentiated, specimens (%) (10^−3 M, 12 specimens): 0 (0) | Gastric gland differentiated, specimens (%) (10^−3 M, 12 specimens): 0 (0) | Hemocyte differentiated, specimens (%) (10^−3 M, 12 specimens): 0 (0) | Intestinal epithelium differentiated, specimens (%) (10^−3 M, 12 specimens): 12 (100) | Mesenchyme differentiated, specimens (%) (10^−3 M, 12 specimens): 12 (100) | Muscle differentiated, specimens (%) (10^−3 M, 12 specimens): 0 (0) | Neural tissue differentiated, specimens (%) (10^−3 M, 12 specimens): 0 (0) | Notochord differentiated, specimens (%) (10^−3 M, 12 specimens): 11 (92) | Pancreas differentiated, specimens (%) (10^−3 M, 12 specimens): 11 (92) | Pharyngeal epithelium differentiated, specimens (%) (10^−3 M, 12 specimens): 10 (83) | Pronephros differentiated, specimens (%) (10^−3 M, 12 specimens): 0 (0) | Yolk-rich cell differentiated, specimens (%) (10^−3 M, 12 specimens): 11 (92) | Atypical epidermis differentiated, specimens (%) (10^−4 M, 35 specimens): 0 (0) | Cartilage differentiated, specimens (%) (10^−4 M, 35 specimens): 0 (0) | Cement gland differentiated, specimens (%) (10^−4 M, 35 specimens): 0 (0) | Coelomic epithelium differentiated, specimens (%) (10^−4 M, 35 specimens): 5 (14) | Ear vesicle differentiated, specimens (%) (10^−4 M, 35 specimens): 0 (0) | Epidermis differentiated, specimens (%) (10^−4 M, 35 specimens): 8 (23) | Eye or its fragments differentiated, specimens (%) (10^−4 M, 35 specimens): 0 (0) | Gastric gland differentiated, specimens (%) (10^−4 M, 35 specimens): 0 (0) | Hemocyte differentiated, specimens (%) (10^−4 M, 35 specimens): 0 (0) | Intestinal epithelium differentiated, specimens (%) (10^−4 M, 35 specimens): 34 (97) | Mesenchyme differentiated, specimens (%) (10^−4 M, 35 specimens): 32 (91) | Muscle differentiated, specimens (%) (10^−4 M, 35 specimens): 7 (20) | Neural tissue differentiated, specimens (%) (10^−4 M, 35 specimens): 0 (0) | Notochord differentiated, specimens (%) (10^−4 M, 35 specimens): 33 (94) | Pancreas differentiated, specimens (%) (10^−4 M, 35 specimens): 25 (71) | Pharyngeal epithelium differentiated, specimens (%) (10^−4 M, 35 specimens): 21 (60) | Pronephros differentiated, specimens (%) (10^−4 M, 35 specimens): 0 (0) | Yolk-rich cell differentiated, specimens (%) (10^−4 M, 35 specimens): 29 (83) | Atypical epidermis differentiated, specimens (%) (10^−5 M, 35 specimens): 0 (0) | Cartilage differentiated, specimens (%) (10^−5 M, 35 specimens): 3 (9) | Cement gland differentiated, specimens (%) (10^−5 M, 35 specimens): 0 (0) | Coelomic epithelium differentiated, specimens (%) (10^−5 M, 35 specimens): 5 (14) | Ear vesicle differentiated, specimens (%) (10^−5 M, 35 specimens): 0 (0) | Epidermis differentiated, specimens (%) (10^−5 M, 35 specimens): 13 (37) | Eye or its fragments differentiated, specimens (%) (10^−5 M, 35 specimens): 0 (0) | Gastric gland differentiated, specimens (%) (10^−5 M, 35 specimens): 9 (26) | Hemocyte differentiated, specimens (%) (10^−5 M, 35 specimens): 0 (0) | Intestinal epithelium differentiated, specimens (%) (10^−5 M, 35 specimens): 33 (94) | Mesenchyme differentiated, specimens (%) (10^−5 M, 35 specimens): 20 (57) | Muscle differentiated, specimens (%) (10^−5 M, 35 specimens): 4 (11) | Neural tissue differentiated, specimens (%) (10^−5 M, 35 specimens): 1 (3) | Notochord differentiated, specimens (%) (10^−5 M, 35 specimens): 25 (71) | Pancreas differentiated, specimens (%) (10^−5 M, 35 specimens): 15 (43) | Pharyngeal epithelium differentiated, specimens (%) (10^−5 M, 35 specimens): 19 (54) | Pronephros differentiated, specimens (%) (10^−5 M, 35 specimens): 12 (34) | Yolk-rich cell differentiated, specimens (%) (10^−5 M, 35 specimens): 30 (86) | Atypical epidermis differentiated, specimens (%) (10^−6 M, 35 specimens): 0 (0) | Cartilage differentiated, specimens (%) (10^−6 M, 35 specimens): 22 (63) | Cement gland differentiated, specimens (%) (10^−6 M, 35 specimens): 0 (0) | Coelomic epithelium differentiated, specimens (%) (10^−6 M, 35 specimens): 12 (34) | Ear vesicle differentiated, specimens (%) (10^−6 M, 35 specimens): 0 (0) | Epidermis differentiated, specimens (%) (10^−6 M, 35 specimens): 34 (97) | Eye or its fragments differentiated, specimens (%) (10^−6 M, 35 specimens): 0 (0) | Gastric gland differentiated, specimens (%) (10^−6 M, 35 specimens): 1 (3) | Hemocyte differentiated, specimens (%) (10^−6 M, 35 specimens): 0 (0) | Intestinal epithelium differentiated, specimens (%) (10^−6 M, 35 specimens): 4 (11) | Mesenchyme differentiated, specimens (%) (10^−6 M, 35 specimens): 35 (100) | Muscle differentiated, specimens (%) (10^−6 M, 35 specimens): 20 (57) | Neural tissue differentiated, specimens (%) (10^−6 M, 35 specimens): 15 (43) | Notochord differentiated, specimens (%) (10^−6 M, 35 specimens): 30 (86) | Pancreas differentiated, specimens (%) (10^−6 M, 35 specimens): 1 (3) | Pharyngeal epithelium differentiated, specimens (%) (10^−6 M, 35 specimens): 34 (97) | Pronephros differentiated, specimens (%) (10^−6 M, 35 specimens): 0 (0) | Yolk-rich cell differentiated, specimens (%) (10^−6 M, 35 specimens): 31 (89) | Atypical epidermis differentiated, specimens (%) (10^−7 M, 32 specimens): 0 (0) | Cartilage differentiated, specimens (%) (10^−7 M, 32 specimens): 16 (50) | Cement gland differentiated, specimens (%) (10^−7 M, 32 specimens): 0 (0) | Coelomic epithelium differentiated, specimens (%) (10^−7 M, 32 specimens): 5 (16) | Ear vesicle differentiated, specimens (%) (10^−7 M, 32 specimens): 0 (0) | Epidermis differentiated, specimens (%) (10^−7 M, 32 specimens): 31 (97) | Eye or its fragments differentiated, specimens (%) (10^−7 M, 32 specimens): 0 (0) | Gastric gland differentiated, specimens (%) (10^−7 M, 32 specimens): 0 (0) | Hemocyte differentiated, specimens (%) (10^−7 M, 32 specimens): 0 (0) | Intestinal epithelium differentiated, specimens (%) (10^−7 M, 32 specimens): 1 (3) | Mesenchyme differentiated, specimens (%) (10^−7 M, 32 specimens): 32 (100) | Muscle differentiated, specimens (%) (10^−7 M, 32 specimens): 24 (75) | Neural tissue differentiated, specimens (%) (10^−7 M, 32 specimens): 9 (28) | Notochord differentiated, specimens (%) (10^−7 M, 32 specimens): 31 (97) | Pancreas differentiated, specimens (%) (10^−7 M, 32 specimens): 0 (0) | Pharyngeal epithelium differentiated, specimens (%) (10^−7 M, 32 specimens): 30 (94) | Pronephros differentiated, specimens (%) (10^−7 M, 32 specimens): 0 (0) | Yolk-rich cell differentiated, specimens (%) (10^−7 M, 32 specimens): 24 (75) | Atypical epidermis differentiated, specimens (%) (10^−8 M, 20 specimens): 0 (0) | Cartilage differentiated, specimens (%) (10^−8 M, 20 specimens): 5 (25) | Cement gland differentiated, specimens (%) (10^−8 M, 20 specimens): 0 (0) | Coelomic epithelium differentiated, specimens (%) (10^−8 M, 20 specimens): 3 (15) | Ear vesicle differentiated, specimens (%) (10^−8 M, 20 specimens): 0 (0) | Epidermis differentiated, specimens (%) (10^−8 M, 20 specimens): 20 (100) | Eye or its fragments differentiated, specimens (%) (10^−8 M, 20 specimens): 0 (0) | Gastric gland differentiated, specimens (%) (10^−8 M, 20 specimens): 0 (0) | Hemocyte differentiated, specimens (%) (10^−8 M, 20 specimens): 0 (0) | Intestinal epithelium differentiated, specimens (%) (10^−8 M, 20 specimens): 0 (0) | Mesenchyme differentiated, specimens (%) (10^−8 M, 20 specimens): 20 (100) | Muscle differentiated, specimens (%) (10^−8 M, 20 specimens): 17 (85) | Neural tissue differentiated, specimens (%) (10^−8 M, 20 specimens): 2 (10) | Notochord differentiated, specimens (%) (10^−8 M, 20 specimens): 18 (90) | Pancreas differentiated, specimens (%) (10^−8 M, 20 specimens): 2 (10) | Pharyngeal epithelium differentiated, specimens (%) (10^−8 M, 20 specimens): 17 (85) | Pronephros differentiated, specimens (%) (10^−8 M, 20 specimens): 0 (0) | Yolk-rich cell differentiated, specimens (%) (10^−8 M, 20 specimens): 16 (80)
